Test system: ischemic skeletal muscle (gastrocnemius-plantaris-soleus group)
Assay: Contractility of the skeletal muscle after chronic ischemia (PVD fatigue model)
Type: in vivo, male Wistar rats
Conditions: PVD fatigue model: 6 mg/kg po, 7 days; after 5 minutes of stimulation, 24 h after last administration
Excerpt: B) Action on the contractility of the skeletal muscle after chronic ischemia Ideas about the pathophysiology of chronic peripheral arterial occlusive disease have changed in recent years as interest has shifted increasingly from the macrocirculation to the microcirculation=disorders in the microcirculation manifest themselves in an inadequate supply of substrates with consequent tissue ischemia, which in turn leads to impairment of the function of the extremity in question. The compounds according to the invention were tested for their function-improving action by means of measurements of the contractile force in the ischemic skeletal muscle using the experimental set-up described below. The experimental animals used were male Wistar rats with a body weight of 380 to 410 g. With the animals under hexobarbital narcosis (®[…] Sodium, 200 mg/kg body weight ip), a monolateral ligature of the right femoral artery was made in the groin. After dusting with penicillin sulfonamide powder for the antibiotic protection of the wound, the small surgical wound was closed and the animals were observed continuously until fully awake. One week later, oral administration of the substance with a stomach tube was started (6 mg/kg body weight, carboxymethyl cellulose sodium suspension) and was continued for 7 days (single administration per day, ca. 7.30 am to 8.30 am). The contractile force was measured 24 h after the last administration of the substance so as to exclude acute effects, the experimental protocol being as follows: The animals were narcotized with ®Nembutal (pentobarbital sodium, 35 mg/kg body weight ip), the muscles of the extremity in question were exposed (gastrocnemius-plantaris-soleus group) and the tendon was connected to a force transducer with a preload of 50 g. A superfusion with isotonic solution (37° C.) served to avoid dehydration and cooling. The mean arterial blood pressure was recorded continuously via a cannulated carotid artery with the aid of a hemodynamometer in order to monitor the physiological state of the animals during the experiment. All the animals breathed spontaneously through an inserted endotracheal tube. After these preparations had been made, the muscle was caused to contract by direct electrical stimulation (2.5 mA, 2 Hz) (Stimulator I, Hugo Sachs, Federal Republic of Germany). The measurement parameter used for the action of the preparation was the absolute contractile force in grams after 5 minutes of stimulation. The change in the contractile force in comparison with the ischemic control muscle is given as the percentage change at this time (see Table 2).

Structure (SMILES)	Change in the contractile force in comparison with the ischemic control muscle
CCn1c2c(c(=O)n(C)c1=O)CN(Cc1ccccc1Cl)CC2 [Compound 16]	+148%
Cl.Cn1c(=O)[nH]c2c(c1=O)CN(Cc1ccccc1)CC2 [Compound 2, 6-Benzyl-3-methyl-5,6,7,8-tetrahydro-1H-pyrido[4,3-d]-pyrimidine-2,4-dione hydrochloride]	+136%
Cn1c(=O)[nH]c2c(c1=O)CN(CCCO)CC2 [Compound 37]	+45%
C=C(C)CN1CCc2[nH]c(=O)n(C)c(=O)c2C1 [Compound 26]	+114%
Cn1c(=O)[nH]c2c(c1=O)CN(C(C(=O)O)c1ccccc1Cl)CC2 (stereo not shown) [Compound 20]	+137%
O=c1[nH]c2c(c(=O)[nH]1)CN(Cc1ccccc1)CC2 [Compound 23]	+129%
Cn1c(=O)[nH]c2c(c1=O)CN(CCO)CC2 [Compound 8, 6-(2-Hydroxyethyl)-3-methyl-5,6,7,8-tetrahydro-1H-pyrido[4,3-d]pyrimidine-2,4-dione]	+151%
